The values that follow come from BigSolDB 2.1.

The conditions of one data set: in water, 293.15 K.
`O=C(O)c1ccc(O)c(O)c1`: the solubility (mole fraction) (as a rule, solubility expressed as the solute's share of all molecules) amounted to 0.00212.
The compound `COc1cc(C=O)ccc1O` gave a solubility (mole fraction) of 0.000989.
With `O=C(O)c1cc(O)c(O)c(O)c1`, the solubility (mole fraction) is 0.00117.
In turn, `COc1cc(C(=O)O)cc(OC)c1O` displayed a solubility (mole fraction) of 0.000376.

The same data set, now with this note: in water, 298.15 K.
As to `O=C(O)c1ccc(O)c(O)c1`, the solubility (mole fraction) was 0.00223.
`COc1cc(C=O)ccc1O` gave a solubility (mole fraction) of 0.00117.
In turn, `O=C(O)c1cc(O)c(O)c(O)c1` showed a solubility (mole fraction) of 0.00122.
Consider `COc1cc(C(=O)O)cc(OC)c1O`, for which the solubility (mole fraction) came to 0.000522.

The same data set, now with this note: in water, 303.15 K.
In turn, `O=C(O)c1ccc(O)c(O)c1` showed a solubility (mole fraction) of 0.00229.
Regarding `COc1cc(C=O)ccc1O`, the solubility (mole fraction) came to 0.00151.
The compound `O=C(O)c1cc(O)c(O)c(O)c1` registered a solubility (mole fraction) of 0.00128.
Same read-out and setting: in the case of `COc1cc(C(=O)O)cc(OC)c1O` it was 0.000646.

Still in this data set, the particulars now being: in water, 308.15 K.
As to `O=C(O)c1ccc(O)c(O)c1`, the solubility (mole fraction) was determined as 0.00238.
Compound `COc1cc(C=O)ccc1O` gave a solubility (mole fraction) of 0.00182.
Regarding `O=C(O)c1cc(O)c(O)c(O)c1`, the solubility (mole fraction) worked out at 0.00131.
`COc1cc(C(=O)O)cc(OC)c1O` yielded a solubility (mole fraction) of 0.000794.

The same data set, now with this note: in water, 313.15 K.
`O=C(O)c1ccc(O)c(O)c1`: the solubility (mole fraction) came to 0.00244.
In turn, `COc1cc(C=O)ccc1O` gave a solubility (mole fraction) of 0.0021.
On the same count and under the same terms, in the case of `O=C(O)c1cc(O)c(O)c(O)c1` it was 0.00138; in that of `COc1cc(C(=O)O)cc(OC)c1O`, 0.000915.

The data set is the same for the next values; noted with them: in water, 318.15 K.
`O=C(O)c1ccc(O)c(O)c1` returned a solubility (mole fraction) of 0.00256.
Still for that read-out and setting: in the case of `COc1cc(C=O)ccc1O` it was 0.00239; in that of `O=C(O)c1cc(O)c(O)c(O)c1`, 0.00143.
`COc1cc(C(=O)O)cc(OC)c1O` came in with a solubility (mole fraction) of 0.00105.
